Test results: patent US20210093637A1, “TOPICAL OINTMENT FORMULATIONS OF PDE-4 INHIBITOR AND THEIR USE IN TREATING SKIN CONDITIONS” (Dermavant Sciences GmbH, priority 2017, published 2021)

Assays:
NC/Nga mice [1] = assay: Therapeutic study in DNCB-induced atopic dermatitis NC/Nga mice (treatment days 8-14); assay type: in vivo, mouse
Description: (§1) Atopic dermatitis (AD) was induced in specific pathogen-free (SPF) female NC/Nga mice (n=8/group), 8-12 weeks old, by repeated percutaneous applications of dinitrochlorobenzene (DNCB) to the dorsal skin of the ears and back on days 4, 7, 10, and 13. NC/Nga mice are an established mouse model for atopic dermatitis. See Suto et al. NC/Nga mice: a mouse model for atopic dermatitis; Int Arch Allergy Immunol. 1999; 120 Suppl 1:70-5; and Gao et al., Establishment of allergic dermatitis in NC/Nga mice as a model for severe atopic dermatitis, Biol. Pharm. Bull. 2004 September; 27(9): 1376-81.
(§2) A prophylactic study and a therapeutic study was conducted: • 1. Prophylactic study: 0.2% formulation (C1), 0.5% formulation (C2), RVT-501 placebo, tacrolimus placebo, 0.1% tacrolimus, or no treatment (AD control) on days 1-14 or sham-induction of AD. • 2. Therapeutic study: 0.2% formulation (C1), 0.5% formulation (C2), active ingredient placebo, tacrolimus placebo, 0.1% tacrolimus, or no treatment (AD control) on days 8-14.
(§3) Scratching assays were performed on days 2, 8, 11, 14 in both studies. Skin samples were harvested for histopathology and cytokine analysis on day 15. Histopathology of sham-induced versus DNCB-induced mouse skin indicates clear presence of atopic dermatitis.

NC/Nga mice [2] = assay: Prophylactic study in DNCB-induced atopic dermatitis NC/Nga mice (treatment days 1-14); assay type: in vivo, mouse; conditions: skin sections day 15
Description: as §1, §2, §3

C=CC[C@@H]1/C=C(\C)C[C@H](C)C[C@H](OC)[C@H]2O[C@@](O)(C(=O)C(=O)N3CCCC[C@H]3C(=O)O[C@H](/C(C)=C/[C@@H]3CC[C@@H](O)[C@H](OC)C3)[C@H](C)[C@@H](O)CC1=O)[C@H](C)C[C@@H]2OC [0.1% tacrolimus, tacrolimus]
scratching (NC/Nga mice [1]; day 14): significant decrease in scratching
IL-1α, IL-1β, IL-4, IL-5, IL-10, IL-12(p40), IL-13, eotaxin, GM-CSF, KC, MCP-1, MIP-1α, MIP-1β, RANTES, and TNF-α in skin (NC/Nga mice [1]; day 15): significantly decreased
AD lesion severity (NC/Nga mice [1]; skin sections day 15): trended toward a reduction
AD lesions induced by DNCB at the microscopic level (NC/Nga mice [2]): attenuated AD lesions
